Results from article PMC9389588, “1,6-epi-Cyclophellitol Cyclosulfamidate Is a Bona Fide Lysosomal α-Glucosidase Stabilizer for the Treatment of Pompe Disease” (Journal of the American Chemical Society, 2022).

What was measured:
[1] = biological target: T1, α-glucosidase GAA (Myozyme) (Homo sapiens, UniProt P10253); experiment: kinetic studies in rhGAA with increasing 4-MU-α-glucoside concentrations
[2] = biological target: T1, α-glucosidase GAA (Myozyme); experiment: in vitro apparent IC50, GAA (Myozyme), 4-MU-α-D-glucopyranoside; type: biochemical; set-up: purchased Sanofi Genzyme; conditions: Myozyme 47 nM, pH 4.0, 30 min preincubation, mean ± SD
[3] = system: GAA activity in zebrafish larvae; experiment: in vivo stabilization of rhGAA in zebrafish embryo, GAA activity in homogenates; conditions: co-injected with Myozyme 34 pmol, 5 dpf
[4] = biological target: T2, ER α-glucosidase II (GANAB) (Homo sapiens, UniProt Q14697); experiment: in vitro apparent IC50, GANAB in fibroblast lysates, 4-MU-α-D-glucopyranoside; type: biochemical; conditions: apparent IC50; Pompe disease fibroblast lysates; pH 7.0; mean ± SD
T2 construct: GANAB (from Pompe Disease Fibroblast Lysates); endogenous in cells; host or cells: human fibroblasts (lysate)
T2 sequence (Q14697 29-944): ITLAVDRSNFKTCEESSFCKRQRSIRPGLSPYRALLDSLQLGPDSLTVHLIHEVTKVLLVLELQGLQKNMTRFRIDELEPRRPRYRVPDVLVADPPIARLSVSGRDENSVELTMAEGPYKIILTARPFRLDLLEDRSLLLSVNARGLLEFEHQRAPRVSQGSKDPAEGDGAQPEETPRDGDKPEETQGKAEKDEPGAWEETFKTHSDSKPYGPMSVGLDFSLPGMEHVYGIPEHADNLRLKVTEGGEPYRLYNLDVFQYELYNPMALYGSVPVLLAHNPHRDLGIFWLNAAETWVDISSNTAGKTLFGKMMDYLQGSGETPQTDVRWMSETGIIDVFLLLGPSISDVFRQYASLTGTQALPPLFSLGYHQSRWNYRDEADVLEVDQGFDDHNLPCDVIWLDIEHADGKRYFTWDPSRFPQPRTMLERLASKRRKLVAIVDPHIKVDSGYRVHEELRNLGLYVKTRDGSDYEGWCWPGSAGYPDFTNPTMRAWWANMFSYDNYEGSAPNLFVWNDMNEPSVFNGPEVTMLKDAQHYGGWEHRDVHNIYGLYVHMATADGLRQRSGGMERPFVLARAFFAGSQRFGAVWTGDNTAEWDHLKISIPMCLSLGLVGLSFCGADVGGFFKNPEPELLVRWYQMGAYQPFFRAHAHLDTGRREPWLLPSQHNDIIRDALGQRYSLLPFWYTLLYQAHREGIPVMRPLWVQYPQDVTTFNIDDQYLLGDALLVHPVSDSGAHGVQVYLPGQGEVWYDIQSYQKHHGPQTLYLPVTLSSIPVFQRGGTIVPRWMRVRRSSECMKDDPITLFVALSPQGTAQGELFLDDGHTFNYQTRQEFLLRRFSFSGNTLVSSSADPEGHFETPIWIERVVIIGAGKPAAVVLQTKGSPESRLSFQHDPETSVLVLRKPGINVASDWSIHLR
T2 sequence (P14314 15-528 partner): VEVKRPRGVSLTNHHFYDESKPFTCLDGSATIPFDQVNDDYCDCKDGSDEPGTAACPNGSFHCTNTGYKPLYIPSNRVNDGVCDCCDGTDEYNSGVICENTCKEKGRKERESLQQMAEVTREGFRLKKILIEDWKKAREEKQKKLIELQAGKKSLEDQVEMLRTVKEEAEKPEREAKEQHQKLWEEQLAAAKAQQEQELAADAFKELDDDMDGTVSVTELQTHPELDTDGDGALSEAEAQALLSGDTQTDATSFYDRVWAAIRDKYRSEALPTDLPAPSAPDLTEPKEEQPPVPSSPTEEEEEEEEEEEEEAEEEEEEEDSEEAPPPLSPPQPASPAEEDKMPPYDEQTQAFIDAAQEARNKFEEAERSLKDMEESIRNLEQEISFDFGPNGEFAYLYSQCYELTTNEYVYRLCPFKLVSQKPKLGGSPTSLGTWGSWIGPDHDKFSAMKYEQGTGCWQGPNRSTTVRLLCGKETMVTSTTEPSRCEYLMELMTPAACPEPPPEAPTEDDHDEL

[5] = biological target: T3, β-glucosidase GBA1 (Cerezyme) (Homo sapiens, UniProt P04062, R534H); experiment: in vitro apparent IC50, GBA1 (Cerezyme), 4-MU-β-D-glucopyranoside; type: biochemical; conditions: pH 5.2, mean ± SD, read-out: in vitro GBA IC50
T3 construct: purchased
T3 sequence (P04062 40-536 R534H): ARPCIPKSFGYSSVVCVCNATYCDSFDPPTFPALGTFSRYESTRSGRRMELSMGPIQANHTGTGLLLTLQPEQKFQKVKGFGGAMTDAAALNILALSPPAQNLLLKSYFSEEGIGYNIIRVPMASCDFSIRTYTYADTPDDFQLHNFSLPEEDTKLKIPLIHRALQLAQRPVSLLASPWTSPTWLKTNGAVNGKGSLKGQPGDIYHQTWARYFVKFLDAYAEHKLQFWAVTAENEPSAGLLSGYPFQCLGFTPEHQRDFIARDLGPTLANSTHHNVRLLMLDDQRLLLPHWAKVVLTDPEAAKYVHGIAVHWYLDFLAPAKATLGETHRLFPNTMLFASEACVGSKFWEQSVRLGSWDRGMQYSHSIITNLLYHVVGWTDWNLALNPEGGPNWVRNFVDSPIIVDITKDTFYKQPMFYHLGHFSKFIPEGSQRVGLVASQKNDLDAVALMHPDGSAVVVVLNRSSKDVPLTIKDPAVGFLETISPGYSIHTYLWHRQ

[6] = biological target: T4, glucosylceramide synthase (GCS) (Mus musculus, UniProt O88693); experiment: in situ cell inhibition of GCS in RAW 264.7 cells, glucosylation of C6-NBD-ceramide; type: cell-based; conditions: mean ± SD
T4 construct: endogenous in cells; host or cells: RAW 264.7
T4 sequence (O88693 1-394): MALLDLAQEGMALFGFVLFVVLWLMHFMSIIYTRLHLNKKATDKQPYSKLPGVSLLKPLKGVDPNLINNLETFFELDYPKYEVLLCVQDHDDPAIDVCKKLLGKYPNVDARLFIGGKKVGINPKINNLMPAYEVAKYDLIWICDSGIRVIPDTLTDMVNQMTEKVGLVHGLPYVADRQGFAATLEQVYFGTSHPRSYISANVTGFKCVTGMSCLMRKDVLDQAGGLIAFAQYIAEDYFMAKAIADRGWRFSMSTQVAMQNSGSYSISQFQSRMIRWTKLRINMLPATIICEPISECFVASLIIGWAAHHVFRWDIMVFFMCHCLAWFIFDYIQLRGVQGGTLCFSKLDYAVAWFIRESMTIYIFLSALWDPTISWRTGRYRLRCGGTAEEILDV

rhGAA (Myozyme) = biological target: T5, rhGAA (Myozyme) (Homo sapiens, UniProt P10253); experiment: thermostability assay of Myozyme, Tycho NT.6; type: binding
T5 construct: purchased Sanofi Genzyme

Compound	Ki [1] [µM]	Ki potency relative to NB-DNJ 2 (more potent) [1]	IC50 [2] [µM]	increase in GAA activity compared to zebrafish injected with only Myozyme ([3]; 1:4 Myozyme:chaperone ratio) [%]	change in GAA activity at high concentration ([3]; 1:10 ratio)	IC50 [4] [µM]	IC50 [5] [µM]	IC50 [6] [µM]	maximum shift in inflection temperature (ΔTimax) (rhGAA (Myozyme); Myozyme 1 μM, 0-20 μM compound, pH 6.5) [°C]	EC50 (rhGAA (Myozyme); Myozyme 1 μM, 0-20 μM compound, pH 6.5, read-out: EC50 of thermal stabilization) [µM]	effect on rhGAA thermostability, in words (rhGAA (Myozyme); increasing temperature)
O=S1(=O)N[C@@H]2[C@H](O)[C@@H](O)[C@H](O)[C@@H](CO)[C@@H]2O1 [compound 4, 1,6-epi-cyclophellitol cyclosulfamidate]	3.4	approximately 5 fold	5.17 ± 0.195	~25	small decrease in GAA activity	496 ± 30	> 500	> 50	11.2	1.16	–
O=S1(=O)N[C@H]2[C@H](CO)[C@@H](O)[C@H](O)[C@@H](O)[C@H]2O1 [compound 6]	–	–	112 ± 2.54	–	–	47 ± 1.75	> 500	> 50	–	–	does not prevent enzyme unfolding
